We go through five compounds from US12631620B2, “Methods of generating organoids for high throughput screening of drugs” (Yissum Research Development Company of the Hebrew …, priority 2019, dated 2026).

In this assay the test system is U87-MG spheroids. The assay is described as follows: High throughput kinetic oxygen screen of FDA-approved anticancer drugs on U87-MG micro-tumors with embedded oxygen sensors, 384-well plate. Type of assay: cell-based, human. To be noted: 5 μM; U87-MG cells embedded in collagen gel or basement membrane gel. The method, then:
In general, cells were kept under standard conditions in a humidified incubator at 37° C., under 5% CO2. U87-MG cells (obtained from the American Type Culture Collection (ATCC)) were cultured in Eagle's Minimum Essential Medium (EMEM) (ATCC® 30-2003™) supplemented with 15% (volume/volume) fetal bovine serum (FCS), 100 U/mL penicillin, and 100 μg/mL streptomycin (Sigma-Aldrich). Medium was changed every 2 days and cells were split every 5 days. Patient's specific glioblastoma derived cells (obtained from Cleveland clinic) were cultured in Neurobasal™ Medium (Trademark Serial number: 77137832) minus phenol red (Thermo-Fischer Scientific) supplemented with 1× (volume/volume) B27 minus Vitamin A (Thermo-Fischer Scientific), 10 ng/ml basic fibroblast growth factor (bFGF) 10 ng/ml EGF (epidermal growth factor) (PEPROTECH), 100 U/mL penicillin, 100 μg/mL streptomycin (Sigma-Aldrich) and L-Alanyl-L-Glutamine (Biological Industries). Medium was changed every 3 days and cells were split every 2-3 weeks. Rat retinal capillary endothelial cells (RCECs) were cultured in EGM™-2 Endothelial Cell Growth Medium-2 BulletKit™ (Lonza). Medium was changed every 3 days and cells were split every 6 days.
For tumor organoid formation, cancer cells were cultured to reach the adequate number needed for a 384 well plate. Cells were trypsinized, counted, and centrifuged at 300 g for 5 minutes at 4° C. The pellet was then mixed with 5 mg CPOx-50-RuP oxygen-sensing beads (Colibri Photonics) and resuspended in 800 μl of ice-cold solution of collagen type I (BD Biosciences) or Matrigel® Basement Membrane Matrix, Growth Factor Reduced (GFR) (Corning) for a final seeding density of 25-50×10^6 cells/mL. In some cases, endothelial cells (RCECs) are used in the assembly of the tumor spheroids by mixing them with same or double the number of tumor cells (i.e. 1:1 or 1:2 ratios) before centrifugation. The 800 μl mix was then equally distributed into a PCR strip (100 μl/tube) and passed to a Biomek i5 liquid handling workstation (Beckman Coulter) for the formation of uniformly-sized organoid in 384-well plate. The plate was then incubated for 30 minutes at 37° C., and the medium was replaced using the liquid handing workstation. Medium was changed every two days for 4 days before adding the drugs (5 μM of NIH chemotherapeutic drugs in triplicates per drug).
On the day of measurement, medium was changed 2-12 hours before drug induction, based on the oxygen consumption of the microtissue (e.g., U87-MG spheroids are given 6 hours after media change before drugs are induced).
After applying the drugs, the plate was placed on the DynamiX bioanalyzer (Tissue Dynamics). Organoids positions were detected optically. Oxygen content was monitored at a predetermined rate of 1 to 10 seconds of measurement at each location (e.g. Matrigel®/U87-MG spheroids treated with a set of FDA-approved anticancer drugs to enable cancer research was measured via phosphorescence for 4 seconds/well). Each cycle takes between 10-120 minutes, dependent on sampling rate and well number (e.g., Matrigel®/U87-MG spheroids 384 well at a sampling rate of 4 measurements/well take about 60 minutes for each cycle). […]
Further validation was usually done by multiple independent repeats (e.g. Matrigel®/U87-MG spheroids treated with a set of FDA-approved anticancer drugs to enable cancer research [AOD IX] were assessed in 3 independent experiments). […]

SMILES strings stand for the structures. Where a name gives a salt, the structure may show the parent alone. Numbered stars: 1 amine (or outer) side, 2 acyl side, 3 side chain; on linkers, the order of the positions; unused ones are H or OH. Bridge positions count the residues as written; N and C are the ends. Square brackets hold non-standard residues; d marks the D form. Peptide text beside a SMILES is read from it. I, II: the chains in the order shown. Actinocin(9to1) = Cc1c2oc3c(C)ccc(C(=O)[*:1])c3nc-2c(C(=O)[*:2])c(N)c1=O; NMeV = CN[C@H](C(=O)O)C(C)C; Sar = CNCC(=O)O

Turning to `Cc1c(C(=O)Nc2ccc(N3C[C@@H](C)O[C@@H](C)C3)nc2)cccc1-c1ccc(OC(F)(F)F)cc1` [Erismodegib], the “type of response in kinetic oxygen measurement (positive, false negative, false positive)” value (“type of response” for short) was “false positive”. Consider `COc1cccc2c1C(=O)c1c(O)c3c(c(O)c1C2=O)C[C@@](O)(C(C)=O)C[C@@H]3O[C@H]1C[C@H](N)[C@H](O)[C@H](C)O1` [Daunorubicin hydrochloride], for which the “type of response” value was “false negative”.

Take `COC(=O)C[C@](O)(CCCC(C)(C)O)C(=O)O[C@@H]1C(OC)=C[C@]23CCCN2CCc2cc4c(cc2[C@H]13)OCO4` [Omacetaxine mepesuccinate]: the “type of response” value is recorded as “positive”. In the case of `Cc1c2oc3c(C)ccc(C(=O)N[C@@H]4C(=O)N[C@H](C(C)C)C(=O)N5CCC[C@H]5C(=O)N(C)CC(=O)N(C)[C@@H](C(C)C)C(=O)O[C@@H]4C)c3nc-2c(C(=O)N[C@@H]2C(=O)N[C@H](C(C)C)C(=O)N3CCC[C@H]3C(=O)N(C)CC(=O)N(C)[C@@H](C(C)C)C(=O)O[C@@H]2C)c(N)c1=O` [Dactinomycin] (I: T[dV]P[Sar][NMeV] / II: T[dV]P[Sar][NMeV]; ester I:1-I:C, II:1-II:C; linker I:N-II:N via Actinocin(9to1)), the “type of response” value is “false positive”. In the case of `CC(C)C[C@H](NC(=O)[C@H](Cc1ccccc1)NC(=O)c1cnccn1)B(O)O` [Bortezomib], the “type of response” value is “positive”.
